# Data taken from patent US20240368096A1 (Enanta Pharmaceuticals, Inc., priority 2022, published 2024).
# Test system: HBV
# Assay: HBV infection in HepG2-NTCP cells (HBeAg AlphaLISA in supernatants)
# Assay type: cell-based
# Conditions: Hepatitis B virus, 192 h; HBV infection of HepG2-NTCP cells; HBeAg in supernatants at day 8 post infection; read-out: Cellular EC50
# Procedure, shortened: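 Readout was day-8 supernatant HBeAg by AlphaLISA, with EC50 set against DMSO controls and binned A<0.1 μM, B 0.1-1 μM, C>1 μM. Compounds were added 2 h before HBV (2000 GE/cell, 4% PEG, 0.5% DMSO) to HepG2-NTCP A3 cells; from day 1 medium held 2.5% DMSO.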
row,Compound,EC50
1,CC(C)C[C@@H]1CN(c2ccccc2)c2cc(Cl)c(-c3ccc(-c4ccoc4)c(C(=O)O)c3)cc2S(=O)(=O)N1C [Example 216],100 to 1000 nM
2,CC(C)C[C@@H]1CN(c2ccccc2)c2cc(Cl)c(-c3ccc(C4=CCC(C)(C)CC4)c(C(=O)O)c3)cc2S(=O)(=O)N1C [Example 217],> 1000 nM
3,CC(C)C[C@@H]1CN(c2ccccc2)c2cc(C3=CCC(C)(C)CC3)c(-c3ccc(C4=CCC(C)(C)CC4)c(C(=O)O)c3)cc2S(=O)(=O)N1C [Example 218],100 to 1000 nM
4,"CC(C)C[C@@H]1CN(c2ccccc2)c2cc(Cl)c(-c3ccc(N4CCCCC4)c(C(=O)O)c3)cc2S(=O)(=O)N1C [Example 219, (R)-5-(7-chloro-3-isobutyl-2-methyl-1,1-dioxido-5-phenyl-2,3,4,5-tetrahydrobenzo[f][1,2,5]thiadiazepin-8-yl)-2-(piperidin-1-yl)benzoic acid]",> 1000 nM
5,"CC(=O)NS(=O)(=O)c1cccc(-c2cc3c(cc2Cl)N(c2ccccc2)C[C@@H](CC(C)C)N(C)S3(=O)=O)c1 [Example 220, (R)—N-((3-(7-chloro-3-isobutyl-2-methyl-1,1-dioxido-5-phenyl-2,3,4,5-tetrahydrobenzo[f][1,2,5]thiadiazepin-8-yl)phenyl)sulfonyl)acetamide]",100 to 1000 nM
6,CC(C)C[C@@H]1CN(c2ccccc2)c2cc(Cl)c(-c3cccc(S(=O)(=O)NC(=O)c4ccccc4)c3)cc2S(=O)(=O)N1C [Example 221],100 to 1000 nM
7,CC(=O)NS(=O)(=O)c1cccc(-c2cc3c(cc2Cl)N(c2ccccc2)C[C@@H](C2CCCCC2)N(C)S3(=O)=O)c1 [Example 222],100 to 1000 nM
8,CC(=O)NS(=O)(=O)c1cccc(-c2cc3c(cc2Cl)N(c2ccccc2)C[C@@H](C2CCC2)N(C)S3(=O)=O)c1 [Example 228],100 to 1000 nM
9,CC(C)C[C@@H]1CN(c2ccccc2)c2cc(Cl)c(-c3cccc(S(=O)(=O)O)c3)cc2S(=O)(=O)N1C [Example 230],100 to 1000 nM
10,"CN1[C@H](C2CCCCC2)CN(c2ccccc2)c2cc(Cl)c(-c3cccc(P(=O)(O)O)c3)cc2S1(=O)=O [Example 232, (R)-(3-(7-chloro-3-cyclohexyl-2-methyl-1,1-dioxido-5-phenyl-2,3,4,5-tetrahydrobenzo[f][1,2,5]thiadiazepin-8-yl)phenyl)phosphonic acid]",100 to 1000 nM
11,CC(C)C[C@@H]1CN(c2ccccc2)c2cc(Cl)c(-c3cccc(P(=O)(O)O)c3)cc2S(=O)(=O)N1C [Example 233],100 to 1000 nM
12,CN1[C@H](C2CCC2)CN(c2ccccc2)c2cc(Cl)c(-c3cccc(P(=O)(O)O)c3)cc2S1(=O)=O [Example 234],100 to 1000 nM
13,"CN1[C@H](C2CCCCC2)CN(c2ccccc2)c2cc(Cl)c(-c3cc(NC(=O)OC(C)(C)C)c(C(=O)O)s3)cc2S1(=O)=O [Example 238, (R)-3-((tert-butoxycarbonyl)amino)-5-(7-chloro-3-cyclohexyl-2-methyl-1,1-dioxido-5-phenyl-2,3,4,5-tetrahydrobenzo[f][1,2,5]thiadiazepin-8-yl)thiophene-2-carboxylic acid]",100 to 1000 nM
14,CN1[C@H](C2CCCCC2)CN(c2ccccc2)c2cc(Cl)c(-c3cc(NC(=O)OCCC(F)(F)F)c(C(=O)O)s3)cc2S1(=O)=O [Example 245],100 to 1000 nM
15,CO[C@H](C)COC(=O)Nc1cc(-c2cc3c(cc2Cl)N(c2ccccc2)C[C@@H](C2CCCCC2)N(C)S3(=O)=O)sc1C(=O)O [Example 259],< 100 nM
16,COCC(C)(C)COC(=O)Nc1cc(-c2cc3c(cc2Cl)N(c2ccccc2)C[C@@H](C2CCCCC2)N(C)S3(=O)=O)sc1C(=O)O [Example 260],100 to 1000 nM
17,COC(C)(C)CCOC(=O)Nc1cc(-c2cc3c(cc2Cl)N(c2ccccc2)C[C@@H](C2CCCCC2)N(C)S3(=O)=O)sc1C(=O)O [Example 261],100 to 1000 nM

# Further lines, results first:
row,EC50,Compound
1,< 100 nM,CC(=O)NS(=O)(=O)c1cc(-c2cc3c(cc2Cl)N(c2ccccc2)C[C@@H](C2CCCCC2)N(C)S3(=O)=O)ccc1F [Example 223]
2,< 100 nM,CC(=O)NS(=O)(=O)c1cc(-c2cc3c(cc2Cl)N(c2ccccc2)C[C@@H](C2CCCCC2)N(C)S3(=O)=O)ccc1Cl [Example 224]
3,< 100 nM,CC(=O)Nc1ccc(-c2cc3c(cc2Cl)N(c2ccccc2)C[C@@H](C2CCCCC2)N(C)S3(=O)=O)cc1C(=O)O [Example 229]
4,< 100 nM,CN1[C@H](C2CCCCC2)CN(c2ccccc2)c2cc(Cl)c(-c3ccc(NC(=O)OCc4ccccc4)c(C(=O)O)c3)cc2S1(=O)=O [Example 236]
5,< 100 nM,"CN1[C@H](C2CCCCC2)CN(c2ccccc2)c2cc(Cl)c(-c3ccc(NC(=O)Nc4ccccc4)c(C(=O)O)c3)cc2S1(=O)=O [Example 237, (R)-5-(7-chloro-3-cyclohexyl-2-methyl-1,1-dioxido-5-phenyl-2,3,4,5-tetrahydrobenzo[f][1,2,5]thiadiazepin-8-yl)-2-(3-phenylureido)benzoic acid]"
6,< 100 nM,CCCOC(=O)Nc1cc(-c2cc3c(cc2Cl)N(c2ccccc2)C[C@@H](C2CCCCC2)N(C)S3(=O)=O)sc1C(=O)O [Example 243]
7,< 100 nM,CN1[C@H](C2CCCCC2)CN(c2ccccc2)c2cc(Cl)c(-c3cc(NC(=O)OCC(C)(F)F)c(C(=O)O)s3)cc2S1(=O)=O [Example 244]
8,< 100 nM,CCCCCOC(=O)Nc1cc(-c2cc3c(cc2Cl)N(c2ccccc2)C[C@@H](C2CCCCC2)N(C)S3(=O)=O)sc1C(=O)O [Example 247]
9,< 100 nM,CC(C)OC(=O)Nc1cc(-c2cc3c(cc2Cl)N(c2ccccc2)C[C@@H](C2CCCCC2)N(C)S3(=O)=O)sc1C(=O)O [Example 248]
10,< 100 nM,CN1[C@H](C2CCCCC2)CN(c2ccccc2)c2cc(Cl)c(-c3cc(NC(=O)OC4CC4)c(C(=O)O)s3)cc2S1(=O)=O [Example 249]
11,< 100 nM,CN1[C@H](C2CCCCC2)CN(c2ccccc2)c2cc(Cl)c(-c3cc(NC(=O)OC4CCC4)c(C(=O)O)s3)cc2S1(=O)=O [Example 250]
12,< 100 nM,CN1[C@H](C2CCCCC2)CN(c2ccccc2)c2cc(Cl)c(-c3cc(NC(=O)OC4CCCC4)c(C(=O)O)s3)cc2S1(=O)=O [Example 251]
13,< 100 nM,CN1[C@H](C2CCCCC2)CN(c2ccccc2)c2cc(Cl)c(-c3cc(NC(=O)OCC4CC4)c(C(=O)O)s3)cc2S1(=O)=O [Example 252]
14,< 100 nM,CN1[C@H](C2CCCCC2)CN(c2ccccc2)c2cc(Cl)c(-c3cc(NC(=O)OCC4CC(F)(F)C4)c(C(=O)O)s3)cc2S1(=O)=O [Example 253]
15,< 100 nM,CN1[C@H](C2CCCCC2)CN(c2ccccc2)c2cc(Cl)c(-c3cc(NC(=O)OCC4(C)CC4)c(C(=O)O)s3)cc2S1(=O)=O [Example 254]
16,< 100 nM,CN1[C@H](C2CCCCC2)CN(c2ccccc2)c2cc(Cl)c(-c3cc(NC(=O)OCC(C)(C)C)c(C(=O)O)s3)cc2S1(=O)=O [Example 255]
17,< 100 nM,CN1[C@H](C2CCCCC2)CN(c2ccccc2)c2cc(Cl)c(-c3cc(NC(=O)OCC(C)(C)C#N)c(C(=O)O)s3)cc2S1(=O)=O [Example 256]
18,< 100 nM,CC(C)OCCOC(=O)Nc1cc(-c2cc3c(cc2Cl)N(c2ccccc2)C[C@@H](C2CCCCC2)N(C)S3(=O)=O)sc1C(=O)O [Example 257]
